Assay results from publication PMC4624854 (Frontiers in Molecular Neuroscience, 2015).

Key:
α1 GlyR [1] = tested on: α1 GlyR; design: method as in Raafat et al., 2010; conditions: non-competitive inhibition; ref Raafat et al., 2010; cited from earlier work
heteromeric α1/β GlyRs = target: T1, heteromeric α1/β GlyRs (Homo sapiens, UniProt P23415); experiment: whole-cell patch-clamp of Igly, heteromeric α1/β GlyRs in CHO cells; assay type: cell-based; conditions: for increase of currents induced by subsaturating glycine: 25 μM ginkgolic acid, n = 5
T1 construct: expressed in transfected cells; host or cells: CHO-K1
T1 sequence (P48167 23-497 partner, one chain of several): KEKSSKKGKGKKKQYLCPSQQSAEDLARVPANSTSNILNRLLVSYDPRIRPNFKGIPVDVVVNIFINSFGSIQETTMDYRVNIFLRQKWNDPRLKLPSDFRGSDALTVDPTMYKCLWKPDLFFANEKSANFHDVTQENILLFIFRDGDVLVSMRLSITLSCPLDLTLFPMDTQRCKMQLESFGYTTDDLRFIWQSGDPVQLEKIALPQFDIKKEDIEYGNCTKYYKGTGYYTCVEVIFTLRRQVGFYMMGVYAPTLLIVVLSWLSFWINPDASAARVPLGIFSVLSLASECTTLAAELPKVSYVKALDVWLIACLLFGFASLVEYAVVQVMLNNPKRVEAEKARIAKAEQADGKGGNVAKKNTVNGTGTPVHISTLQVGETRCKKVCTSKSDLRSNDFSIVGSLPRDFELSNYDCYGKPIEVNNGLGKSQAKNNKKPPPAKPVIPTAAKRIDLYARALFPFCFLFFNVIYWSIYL
Description: (§1) For electrophysiological analysis cells were transfected with cDNAs of different receptor-operated channels. One day before the transfection, cells were plated on the coverslips (12–14 mm in diameter), which were placed inside 35-mm cell culture dishes with 2 ml of medium. CHO-K1 cells were transfected with the following cDNAs encoding GlyR subunits: human α1 (1 μg/1 μl), α2 (2 μg/1 μl), α3-long (2 μg/1 μl), and β (in combination with α1 or α2 subunits with the ratio of cDNAs concentrations 1α:5β); or with a mixture of cDNAs encoding GABAA receptors: α1-GFP (1 μg/μl), β2 (1 μg/μl), γ2 (1 μg/μl) using the Lipofectamine 2000 transfection protocol (Life Technology, USA). To facilitate identification of expressing cells, in the case of GlyR, green fluorescent protein (GFP, 0.5 μg/μl) was added to the transfection medium. Visualization of GABAAR expression was achieved by using the α1-GFP construct ([Bueno et al., 1998]). Three hours after the initial exposure of the cells to the cDNAs, a fresh solution replaced the old one. […] Electrophysiological recordings were performed on fluorescent cells 24–72 h after transfection.
Whole-cell recordings were performed at room temperature (20–25 °C) using an EPC-9 amplifier (HEKA Elektronik, Germany). Cells were continuously superfused with external solution containing (mM): NaCl 140, CaCl2 2, KCl 2.8, MgCl2 4, HEPES 20, glucose 10; pH 7.4; 320–330 mOsm. Two intracellular solutions were used for filling recording patch pipettes. First, mainly used, ‘CsCl solution’ contained (mM): CsCl 140, CaCl2 6, MgCl2 2, MgATP 2, NaGTP 0.4, HEPES/CsOH 10, BAPTA/KOH 20; pH 7.3; 290 mOsm. In the experiments performed with CsCl intracellular solution, ionic currents were recorded at holding potential (Vh) –30 mV. […] Two parallel rectangular tubes (100 μm × 100 μm) were positioned 40–50 μm above the recorded cell. The movement of the tubes was controlled by a computer-driven fast exchange system (SF 77A Perfusion Fast-Step, Warner, USA) allowing a 10–90% solution exchange in 3–5 ms, as measured by open electrode controls (1/10 external solution/water). […]

α2 GlyRs = target: T2, α2 GlyRs (Homo sapiens, UniProt P23416); experiment: whole-cell patch-clamp of Igly, homomeric α2 GlyRs in CHO cells; assay type: cell-based
T2 construct: expressed in transfected cells; host or cells: CHO-K1
T2 sequence (P23416 28-452): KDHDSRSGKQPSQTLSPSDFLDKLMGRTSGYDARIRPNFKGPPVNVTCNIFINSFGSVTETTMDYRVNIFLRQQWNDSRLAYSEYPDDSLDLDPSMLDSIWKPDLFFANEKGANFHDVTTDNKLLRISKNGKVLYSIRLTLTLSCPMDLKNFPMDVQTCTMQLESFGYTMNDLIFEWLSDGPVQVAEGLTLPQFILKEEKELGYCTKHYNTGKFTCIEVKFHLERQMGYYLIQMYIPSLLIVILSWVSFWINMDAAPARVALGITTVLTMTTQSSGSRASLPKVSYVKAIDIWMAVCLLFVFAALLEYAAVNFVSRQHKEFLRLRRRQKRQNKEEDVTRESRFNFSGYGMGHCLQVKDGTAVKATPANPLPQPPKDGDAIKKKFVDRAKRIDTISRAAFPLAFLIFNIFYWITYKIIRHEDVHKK
Description: (§2) For electrophysiological analysis cells were transfected with cDNAs of different receptor-operated channels. One day before the transfection, cells were plated on the coverslips (12–14 mm in diameter), which were placed inside 35-mm cell culture dishes with 2 ml of medium. CHO-K1 cells were transfected with the following cDNAs encoding GlyR subunits: human α1 (1 μg/1 μl), α2 (2 μg/1 μl), α3-long (2 μg/1 μl), and β (in combination with α1 or α2 subunits with the ratio of cDNAs concentrations 1α:5β); or with a mixture of cDNAs encoding GABAA receptors: α1-GFP (1 μg/μl), β2 (1 μg/μl), γ2 (1 μg/μl) using the Lipofectamine 2000 transfection protocol (Life Technology, USA). […]
(§3) Whole-cell recordings were performed at room temperature (20–25 °C) using an EPC-9 amplifier (HEKA Elektronik, Germany). […] In the experiments performed with CsCl intracellular solution, ionic currents were recorded at holding potential (Vh) –30 mV. […] Two parallel rectangular tubes (100 μm × 100 μm) were positioned 40–50 μm above the recorded cell. The movement of the tubes was controlled by a computer-driven fast exchange system (SF 77A Perfusion Fast-Step, Warner, USA) allowing a 10–90% solution exchange in 3–5 ms, as measured by open electrode controls (1/10 external solution/water). […]
(§4) All electrophysiological results were analyzed using PatchMaster (HEKA Electronik, Germany) software. […]

[2] = target: T3, α3 GlyR (α3L splice variant) (Homo sapiens, UniProt O75311); experiment: whole-cell patch-clamp of Igly, α3-long (α3L) GlyRs in CHO cells; assay type: cell-based
T3 construct: expressed in transfected cells; host or cells: CHO-K1
T3 sequence (O75311 34-464): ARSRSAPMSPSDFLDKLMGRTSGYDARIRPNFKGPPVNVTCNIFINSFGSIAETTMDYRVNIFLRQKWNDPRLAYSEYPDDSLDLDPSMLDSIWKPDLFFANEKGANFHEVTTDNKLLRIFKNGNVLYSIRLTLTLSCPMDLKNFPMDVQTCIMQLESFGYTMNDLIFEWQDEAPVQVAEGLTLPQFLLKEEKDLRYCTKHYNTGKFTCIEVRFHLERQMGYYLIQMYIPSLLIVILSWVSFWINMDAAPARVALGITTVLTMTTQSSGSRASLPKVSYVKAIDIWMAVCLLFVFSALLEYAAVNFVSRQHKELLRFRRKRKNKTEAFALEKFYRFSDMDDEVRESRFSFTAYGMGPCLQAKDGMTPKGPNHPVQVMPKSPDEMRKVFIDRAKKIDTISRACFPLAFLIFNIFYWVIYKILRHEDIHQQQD
Description: as §1
(§5) Whole-cell recordings were performed at room temperature (20–25 °C) using an EPC-9 amplifier (HEKA Elektronik, Germany). Cells were continuously superfused with external solution containing (mM): NaCl 140, CaCl2 2, KCl 2.8, MgCl2 4, HEPES 20, glucose 10; pH 7.4; 320–330 mOsm. Two intracellular solutions were used for filling recording patch pipettes. First, mainly used, ‘CsCl solution’ contained (mM): CsCl 140, CaCl2 6, MgCl2 2, MgATP 2, NaGTP 0.4, HEPES/CsOH 10, BAPTA/KOH 20; pH 7.3; 290 mOsm. In the experiments performed with CsCl intracellular solution, ionic currents were recorded at holding potential (Vh) –30 mV. In some experiments, ‘Kgluconate solution’ was used, in which CsCl 140 mM was replaced by KCl 20 mM + Kgluconate 120 mM. Recordings with this solutions were performed at Vh = 0 mV. Pipettes were pulled from borosilicate glass capillaries (Harvard Apparatus Ltd, USA) and had resistances of 5–10 MOhms. For rapid replacement of solutions, the fast application system was used in this study. Two parallel rectangular tubes (100 μm × 100 μm) were positioned 40–50 μm above the recorded cell. The movement of the tubes was controlled by a computer-driven fast exchange system (SF 77A Perfusion Fast-Step, Warner, USA) allowing a 10–90% solution exchange in 3–5 ms, as measured by open electrode controls (1/10 external solution/water).
In all experiments, the duration of the pulses of agonist was 2 s. The duration of ginkgolic acid application varied from 20 s to 6 min. Cells with low input resistance (<150 MOhms) and a rapid run-down (>30% with repetitive application) were excluded from analysis.
(§6) All electrophysiological results were analyzed using PatchMaster (HEKA Electronik, Germany) software. Dose–response curves were constructed by fitting values obtained at different concentrations, after normalization.

GABAAR α1/β2/γ2 = GABAAR α1/β2/γ2 (Homo sapiens, UniProt P14867+P47870); experiment: whole-cell patch-clamp of GABA-evoked currents, α1/β2/γ2 GABAARs in CHO cells; assay type: cell-based
Sequence of GABAAR α1/β2/γ2 (P14867 28-456): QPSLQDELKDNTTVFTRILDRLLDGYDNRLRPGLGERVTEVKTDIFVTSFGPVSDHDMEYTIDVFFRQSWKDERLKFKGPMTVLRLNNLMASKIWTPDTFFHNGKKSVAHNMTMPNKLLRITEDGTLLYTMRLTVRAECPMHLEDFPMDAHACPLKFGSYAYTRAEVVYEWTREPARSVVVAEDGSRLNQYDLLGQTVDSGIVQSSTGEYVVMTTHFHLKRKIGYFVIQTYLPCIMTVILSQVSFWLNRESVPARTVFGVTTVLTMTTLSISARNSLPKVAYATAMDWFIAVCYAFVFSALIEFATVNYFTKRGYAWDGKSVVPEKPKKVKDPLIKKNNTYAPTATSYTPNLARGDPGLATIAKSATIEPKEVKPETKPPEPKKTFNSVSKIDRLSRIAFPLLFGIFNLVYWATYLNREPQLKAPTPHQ
Sequence of GABAAR α1/β2/γ2 (P47870 26-512): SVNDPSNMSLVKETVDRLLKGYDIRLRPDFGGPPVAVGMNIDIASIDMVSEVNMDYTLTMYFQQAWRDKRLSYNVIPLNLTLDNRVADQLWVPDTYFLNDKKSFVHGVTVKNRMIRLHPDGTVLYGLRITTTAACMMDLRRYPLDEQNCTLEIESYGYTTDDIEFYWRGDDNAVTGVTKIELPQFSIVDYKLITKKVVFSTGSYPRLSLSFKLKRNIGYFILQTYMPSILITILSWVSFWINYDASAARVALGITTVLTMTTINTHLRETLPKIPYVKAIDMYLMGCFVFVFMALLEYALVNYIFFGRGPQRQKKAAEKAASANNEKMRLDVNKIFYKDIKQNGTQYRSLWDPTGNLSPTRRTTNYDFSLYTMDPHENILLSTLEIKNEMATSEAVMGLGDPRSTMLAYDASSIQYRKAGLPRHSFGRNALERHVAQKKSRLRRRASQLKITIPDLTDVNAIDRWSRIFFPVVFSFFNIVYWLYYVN
Sequence of GABAAR α1/β2/γ2 (P18507 40-475 partner): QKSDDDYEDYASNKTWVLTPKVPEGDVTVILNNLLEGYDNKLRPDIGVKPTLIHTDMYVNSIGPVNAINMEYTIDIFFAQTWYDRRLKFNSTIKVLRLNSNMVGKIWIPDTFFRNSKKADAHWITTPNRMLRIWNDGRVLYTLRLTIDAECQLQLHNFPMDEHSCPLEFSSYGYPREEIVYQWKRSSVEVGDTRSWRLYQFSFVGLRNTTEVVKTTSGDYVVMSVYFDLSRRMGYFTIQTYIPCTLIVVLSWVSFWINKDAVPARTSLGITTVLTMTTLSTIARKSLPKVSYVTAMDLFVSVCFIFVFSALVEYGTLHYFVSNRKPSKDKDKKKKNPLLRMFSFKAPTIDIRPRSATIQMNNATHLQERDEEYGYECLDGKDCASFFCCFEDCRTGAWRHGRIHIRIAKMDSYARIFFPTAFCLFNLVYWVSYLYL
Description: as §1
Whole-cell recordings were performed at room temperature (20–25 °C) using an EPC-9 amplifier (HEKA Elektronik, Germany). Cells were continuously superfused with external solution containing (mM): NaCl 140, CaCl2 2, KCl 2.8, MgCl2 4, HEPES 20, glucose 10; pH 7.4; 320–330 mOsm. Two intracellular solutions were used for filling recording patch pipettes. […] In the experiments performed with CsCl intracellular solution, ionic currents were recorded at holding potential (Vh) –30 mV. […] Two parallel rectangular tubes (100 μm × 100 μm) were positioned 40–50 μm above the recorded cell. The movement of the tubes was controlled by a computer-driven fast exchange system (SF 77A Perfusion Fast-Step, Warner, USA) allowing a 10–90% solution exchange in 3–5 ms, as measured by open electrode controls (1/10 external solution/water). […]
as §4

[3] = tested on: protein phosphatase 2C (PP2C); design: method as in Ahlemeyer et al., 2001; conditions: ref Ahlemeyer et al., 2001; cited from earlier work
α1 GlyR [4] = target: T4, α1 GlyR (Homo sapiens, UniProt P23415); experiment: whole-cell patch-clamp of Igly, α1 GlyR expressed in mouse neuroblastoma (N2a) cells; assay type: cell-based; design: expressed in transfected cells; host or cells: mouse neuroblastoma N2a; conditions: 3 μM ginkgolic acid, first two applications (Figure 2B)
T4 sequence (P23415 29-457): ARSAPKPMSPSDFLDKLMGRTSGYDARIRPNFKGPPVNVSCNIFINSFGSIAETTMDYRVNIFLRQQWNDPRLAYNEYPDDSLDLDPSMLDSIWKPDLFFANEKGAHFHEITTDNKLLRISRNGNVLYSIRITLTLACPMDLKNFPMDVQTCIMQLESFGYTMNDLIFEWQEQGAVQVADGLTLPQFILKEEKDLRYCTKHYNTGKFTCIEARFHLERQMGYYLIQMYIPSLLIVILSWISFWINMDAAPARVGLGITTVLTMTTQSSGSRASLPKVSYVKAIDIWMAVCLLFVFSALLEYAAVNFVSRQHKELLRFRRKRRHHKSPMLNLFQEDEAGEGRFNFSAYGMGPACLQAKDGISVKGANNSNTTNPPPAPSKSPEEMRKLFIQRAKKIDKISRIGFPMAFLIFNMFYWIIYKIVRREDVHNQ
Description: as §2, §3

α1 GlyR [5] = target: T4, α1 GlyR; experiment: whole-cell patch-clamp of glycine-induced currents (Igly), homomeric α1 GlyRs expressed in CHO cells; conditions: for average Igly (mean current amplitude) after ginkgolic acid: 2 min, control 291 ± 65
Description: The experiments were carried out on cultured Chinese hamster ovary (CHO-K1) cells obtained from the American Type Tissue Culture Collection (ATCC, Molsheim, France) and on mouse neuroblastoma cells (N2a) cells that were maintained in culture conditions as previously described ([Waseem et al., 2010]; [Mukhtarov et al., 2013]).
as §1, §5
In all experiments, the duration of the pulses of agonist was 2 s. […] Cells with low input resistance (<150 MOhms) and a rapid run-down (>30% with repetitive application) were excluded from analysis.
as §6
where I is the normalized current amplitude induced by the agonist at concentration [A], nH is the Hill coefficient and EC50 is the concentration at which a half-maximum response was induced.
Paired and unpaired Student’s t-tests were used for statistical analysis. The data are expressed as the means ± SEM.

[6] = tested on: GlyR subunits α1, α2, α3; heteromeric vs homomeric GlyRs; design: method as in Kondratskaya et al., 2005; conditions: ref Kondratskaya et al., 2005; cited from earlier work
α1 GlyR subunits = tested on: α1 GlyR subunits; design: method as in Xiong et al., 2011; conditions: ref Xiong et al., 2011; cited from earlier work
α3 GlyR subunits = tested on: α3 GlyR subunits; design: method as in Xiong et al., 2011; conditions: ref Xiong et al., 2011; cited from earlier work

## O=c1c(O)c(-c2ccc(O)c(O)c2)oc2cc(O)cc(O)c12 [Quercetin]
α1 GlyR [1]
  IC50: ~45 µM

## CCCCCC/C=C\CCCCCCCc1cccc(O)c1C(=O)O [ginkgolic acid]
Heteromeric α1/β GlyRs
  increase of currents induced by subsaturating glycine: 82 ± 39%
Heteromeric α1/β GlyRs; listed as GA
  increase of currents induced by subsaturating glycine: 82%±39
Heteromeric α1/β GlyRs; glycine 0.3–1 mM
  effect on currents induced by saturated glycine: did not increase
α2 GlyRs; 1 μM ginkgolic acid
  effect on Igly at 1 μM: not detectable
α2 GlyRs; ginkgolic acid <10 μM
  effect on the amplitude of Igly at low concentrations: no effect
[2]; 25 μM ginkgolic acid
  overall effect on the amplitude of whole-cell currents: negligible
[2]; 25 μM ginkgolic acid, 20–40 sec pre-treatment, one cell
  change of current induced by 100 μM glycine, one cell with weak potentiation: +4%
[2]; 25 μM ginkgolic acid, glycine 100 μM, n = 6, control 338 ± 101
  mean current in the presence of ginkgolic acid: 318 ± 96 pA
[2]; glycine 100 μM, n = 6, control 338 ± 101
  mean current after washout of ginkgolic acid: 326 ± 113 pA
GABAAR α1/β2/γ2; 25 μM ginkgolic acid, 20–40 s, GABA 1 μM (EC10) or 10 μM (EC50)
  changes in GABA-evoked currents: did not observe any changes
GABAAR α1/β2/γ2; 25 μM ginkgolic acid, GABA 10 μM, n = 16, control 235 ± 65
  mean current after ginkgolic acid application: 228 ± 63 pA
GABAAR α1/β2/γ2; GABA 10 μM, n = 16, control 235 ± 65
  mean current after washout of ginkgolic acid: 232 ± 65 pA
[3]
  concentrations at which effects on PP2C were caused: > 100 µM
α1 GlyR [4]
  increase in Igly in N2a cells: more than twofold increase
α1 GlyR [5]
  threshold of potentiation of α1 GlyR: ~30 nM
α1 GlyR [5]; 30 nM ginkgolic acid, glycine 30 μM
  time of treatment after which potentiation was observed (onset): 2 to 3 min
α1 GlyR [5]; 100 nM ginkgolic acid, 20–30 s, n = 8
  augmentation of Igly after 20–30 s of pre-treatment: 26 ± 8%
α1 GlyR [5]; 100 nM ginkgolic acid, 40 s, glycine 30 μM, one cell (Figure 2A)
  potentiation of Igly following the first 40 s: 54%
α1 GlyR [5]; 100 nM ginkgolic acid, glycine 30 μM, n = 8
  average Igly (mean current amplitude) after ginkgolic acid: 467 ± 124 pA
α1 GlyR [5]; 100 nM ginkgolic acid, glycine 30 μM, n = 8, listed as GA
  average Igly (mean current amplitude) after ginkgolic acid: 467±124 pA
α1 GlyR [5]; 100 nM ginkgolic acid, 2 min pre-application, glycine 30 μM, n = 8 cells (range in different cells and mean ± SEM)
  degree of potentiation of Igly: 51 ± 10%
α1 GlyR [5]; 3 μM ginkgolic acid, 30 s, glycine 30 μM
  enhancement of Igly after 30 s: > 30%
α1 GlyR [5]; glycine 0.3–1 mM
  effect on amplitudes of currents induced by saturating glycine: not affected

## ginkgolide B
[6]
  preference for α1 vs. α2 GlyR subunits: about 5 fold
  preference for α1 vs. α3 GlyR subunits: ~3 fold

## CCCCCc1cc(O)c2c(c1)OC(C)(C)C1CCC(C)=CC21 (centres unmarked) [THC, Δ^9-tetrahydrocannabiol]
α1 GlyR subunits
  concentration from which potentiation begins: ≥ 30 nM
α3 GlyR subunits
  concentration from which potentiation begins: ≥ 30 nM

## NCC(=O)O [glycine, reference compound]
[2]; read-out: EC50 to glycine in control, n = 11
  EC50: 142 ± 9.8 µM
